# Test results taken from paper PMC4909201 (PLoS ONE, 2016).
# Like-named read-outs stand apart in the source and are kept apart here.
# Columns and labels:
# [1] = target: T1, 125I-thrombin binding to γA/γA-fibrin clots (Homo sapiens, UniProt P00734); assay: 125I-thrombin binding to γA/γA-fibrin clots; conditions: for Ki: EC50 converted by Cheng-Prusoff with Kd of 125I-thrombin for fibrin, 10 nM 125I-thrombin, 3 μM γA/γA-fibrinogen
# T1 construct: purchased Enzyme Research Laboratories (South Bend, IN)
# [2] = target: T2, thrombin binding to GpIbα269-286ppp (Homo sapiens, UniProt P00734); assay: SPR: effect of active site inhibitors on thrombin binding to immobilized GpIbα269-286ppp; conditions: for increase in affinity of thrombin for GpIbα269-286ppp: 2.5 μM inhibitor vs no inhibitor, p < 0.001; for Change: difference between thrombin binding without inhibitor and at saturating inhibitor
# T2 construct: purchased Enzyme Research Laboratories (South Bend, IN)
# Description: Between runs, flow cells were regenerated with 1 M NaCl for 30 s. […] EC50 values were determined as above. […] Binding affinities were calculated as described above.
# [3] = target: T3, 125I-thrombin binding to γA/γ′-fibrin clots (Homo sapiens, UniProt P00734); assay: 125I-thrombin binding to γA/γ′-fibrin clots; conditions: for Ki: EC50 converted by Cheng-Prusoff with Kd of 125I-thrombin for fibrin, 10 nM 125I-thrombin, 1 μM γA/γ′-fibrinogen
# T3 construct: purchased Enzyme Research Laboratories (South Bend, IN)
# [4] = target: thrombin binding to immobilized factor Va (Homo sapiens, UniProt P00734); assay: SPR: effect of active site inhibitors on thrombin binding to immobilized factor Va
# Description: (§1) Flows cells were then washed with 1 M ethanolamine for 420 s, followed by the running buffer composed of 20 mM HEPES, 150 mM NaCl, pH 7.4 (HBS) containing 0.01% Tween-80 (HBS-Tw) and 5 mM CaCl2.
# (§2) Because of the fast on- and off-rates, all SPR experiments were performed at a flow rate of 25 μl/min [28]. Association times were 120 s and dissociation was monitored by washing the flow cells with HBS-Tw for 600 s. Between runs, flow cells were regenerated with a 45 s wash with HBS-Tw containing 0.5 M CaCl2.
# (§3) The rapid approach to equilibrium at the low flow rate nullified any potential mass transport concerns. Nonspecific binding was accounted for by subtracting the control RU values obtained from the unmodified flow cell.
# [5] = target: thrombin binding to immobilized γA/γ′-fibrin (Homo sapiens, UniProt P00734); assay: SPR: effect of active site inhibitors on thrombin binding to immobilized γA/γ′-fibrin
# Description: as §1, §2, §3
# [6] = target: thrombin binding to immobilized γA/γA-fibrin (Homo sapiens, UniProt P00734); assay: SPR: effect of active site inhibitors on thrombin binding to immobilized γA/γA-fibrin
# Description: as §1, §2, §3
# thrombin = thrombin inhibition; cited from earlier work
# [7] = maximal change in percentage of bound 125I-thrombin vs no inhibitor
# [8] = maximal change in percentage of bound 125I-thrombin vs no inhibitor, listed as argatroban
# [9] = maximal change in percentage of bound 125I-thrombin vs no inhibitor, listed as hirudin
# [10] = given as reduction (positive number)
# [11] = 0–5000 nM inhibitor, 250–500 nM thrombin
compound,measurement,setting,value
"CC1CNc2c(cccc2S(=O)(=O)N[C@@H](CCCNC(=N)N)C(=O)N2CC[C@@H](C)C[C@@H]2C(=O)O)C1 (stereo partly shown) [Argatroban, argatroban]",Change,[1]; [7],+18.3 ± 5.0%
same,Change,[1]; [8],15–25%
same,increase in affinity of thrombin for GpIbα269-286ppp,[2],25–35%
same,Change,[2],+17.3 ± 0.6%
same,Change,[2]; listed as argatroban,17%
same,Change,[3]; [7],+26.1 ± 0.4%
same,Change,[3]; [8],15–25%
Hirudin,Ki,[1],3.4 ± 0.3 nM
same,Change,[1]; [7],-100%
same,Change,[1]; [9],fully inhibited
same,Ki,[3],3.4 ± 0.1 nM
same,Change,[3]; [7],-100%
same,Change,[3]; [9],fully inhibited
"[H]/N=C(/N)c1ccc(NCc2nc3cc(C(=O)N(CCC(=O)O)c4ccccn4)ccc3n2C)cc1 [Dabigatran, dabigatran]",reduction of thrombin binding at saturation,[4]; [10],37.9 ± 3.2%
same,reduction of thrombin binding at saturation,[5]; [10],28.4 ± 1.6%
same,reduction of thrombin binding at saturation,[6]; [10],47.6 ± 0.4%
same,Change,[1],-21.4 ± 3.3%
same,Change,[2],0%
same,Change,[2]; listed as dabigatran,no effect
same,Change,[3],-9.4 ± 1.4%
"CCC1CCN(C(=O)C(CCCN=C(N)N)NS(=O)(=O)c2cccc3c(N(C)C)cccc23)CC1 (stereo not shown) [DAPA, dansylarginine N-(3-ethyl-1,5-pentanediyl)amide]",EC50,[4]; [11],565 ± 200 nM
same,EC50,[5]; [11],516 ± 31 nM
same,EC50,"[6]; 0–5000 nM inhibitor, 250–500 nM thrombin, Req vs inhibitor concentration",514 ± 24 nM
same,Ki,[1],2.1 ± 0.9 nM
same,EC50,"[2]; 0–5000 nM inhibitor, 250 nM thrombin",1290 ± 32.3 nM
same,increase in affinity of thrombin for GpIbα269-286ppp,[2],25–35%
same,Ki,thrombin,45 nM
same,Ki,[3],19.6 ± 19.1 nM
